According to patent US8859628B2, “Method for preventing, treating and diagnosing disorders of protein aggregation” (priority 2003, dated 2014):
Entries after “also recorded” stand apart in the source; their conditions may differ.

What was measured:
TgCRND8 mice [1] = conditions: mouse, in vivo
Text: Animals were sacrificed after one month of treatment and analysed for pathological outcomes.
(§1) In these experiments, the dosage and oral administration of compounds, and the behavioral and neurochemical assays were the same as those employed in the above treatment experiments.

TgCRND8 mice [2] = assay: Plasma Aβ levels; assay type: in vivo, mouse
Method: (§2) Plasma and Cerebral Aβ Content—Hemi-brain samples were homogenized in a buffered sucrose solution, followed by either 0.4% diethylamine/100 mM NaCl for soluble Aβ levels or cold formic acid for the isolation of total Aβ. After neutralization the samples were diluted and analyzed for Aβ40 and Aβ42 using commercially available kits (BIOSOURCE International). Each hemisphere was analyzed in triplicate with the mean±SEM reported. Western blot analyses were performed on all fractions using urea gels for Aβ species analyses. Aβ was detected using 6E10 (BIOSOURCE International) and Enhanced Chemiluminenscence (Amersham).
(§3) Plasma and Cerebral Aβ Content—Hemi-brain samples were homogenized in a buffered sucrose solution, followed by either 0.4% diethylamine/100 mM NaCl for soluble Aβ levels or cold formic acid for the isolation of total Aβ. After neutralization the samples were diluted and analyzed for Aβ40 and Aβ42 using commercially available kits (BIOSOURCE International). Each hemisphere was analyzed in triplicate with the mean±SEM reported.

TgCRND8 mice [3] = assay: Cerebral Aβ content (Aβ40 and Aβ42 kits on hemi-brain homogenates); assay type: in vivo, mouse; design: Total Aβ: unit not given here
Method: as §2, §3

TgCRND8 mice [4] = assay: Morris Water Maze, spatial reference memory version, three-day trial paradigm (treatment/reversal study); assay type: in vivo, mouse; conditions: for cognitive function, treated TgCRND8 mice vs non-Tg littermates (words): 1 month treatment from 5 months of age, three-day paradigm
Method: A cohort entered the study at 5 months of age and outcomes were analyzed at 6-months of age. The body weight, coat characteristics and in cage behavior was monitored. All experiments were performed according to the Canadian Council on Animal Care guidelines.
(§4) Behavioral Test—Reversal Study—Mice entered the Morris water maze test with a hidden platform on day one without pretraining. Mice were tested for 3 days with six trials per day. On the fourth day, the platform was removed from the pool and each mouse received one 30-s swim probe trial. On the last day the animals underwent a cue test in order to evaluate swimming ability, eye sight and general cognition. The cue test is composed at the platform being placed in a different quadrant than that used for testing and is tagged with a flag. Animals are allowed 60 s to find the platform. […] Behavioural data was analysed using a mixed model of factorial analysis of variance (ANOVA) with drug or genotype and training sessions as repeated measure factors.
The cognitive function of TgCRND8 mice was assessed using the spatial reference memory version of the Morris Water Maze using a three day trial paradigm (FIGS. 4-8).
Behavioural data was analysed using a mixed model of factorial analysis of variance (ANOVA) with drug and genotype as between subject variables and training sessions as within subject variable.
as §1

TgCRND8 mice [5] = assay: Vascular amyloid burden; assay type: in vivo, mouse; conditions: prevention, 6 months of age
Method: (§5) Cerebral amyloid burden—Brains were removed and one hemisphere was fixed in 4% paraformaldehyde and embedded in paraffin wax in the mid saggital plane. To generate sets of systematic uniform random sections, 5 μm serial sections were collected across the entire hemisphere. Sets of sections at […] intervals were used for analyses (10-14 sections/set). Plaque were identified after antigen retrieval with formic acid, and incubated with primary anti-Aβ antibody (Dako M-0872), followed by secondary antibody (Dako StreptABCcomplex/horseradish kit). End products were visualized with DAB counter-stained with hematoxylin. Amyloid plaque burden was assessed using Leco IA-3001 image analysis software interfaced with Leica microscope and Hitachi KP-M1U CCD video camera. Vascular burden was analyzed similarly and a dissector was used to measure the diameter of affected vessels.
Alzheimer's disease is characterized by the presence of both parenchymal and vascular amyloid deposits. In untreated 6 month old TgCRND8 mice approximately 0.03% of the brain area is associated with vascular amyloid.

non-Tg littermates = assay: Morris Water Maze performance of treated non-Tg littermates; assay type: in vivo, mouse; conditions: treated vs untreated non-Tg
Method: (§6) Behavioral tests—After non-spatial pre-training, mice underwent place discrimination training for 5 days with 4 trials per day. Behavioral data was analyzed using a mixed model of factorial analysis of variance (ANOVA) with drug or genotype and training sessions as repeated measure factors.
as §4

TgCRND8 mice [6] = assay: Gliosis quantitation (GFAP astrocytes, CD68 microglia); assay type: in vivo, mouse; conditions: prevention
Text: Gliosis Quantitation—Five randomly selected, evenly spaced, sagittal sections were collected from paraformaldehyde-fixed and frozen hemispheres of treated and control mice. Sections were immunolabelled for astrocytes with anti-rat GFAP IgG2a (Dako; diluted 1:50) and for microglia with anti-rat CD68 IgG2b (Dako; 1:50).
Serial sagittal sections were stained with the astrocytic marker glial fibrillary acidic protein (GFAP) and quantitated for percent brain area covered by astrogliosis.

TgCRND8 mice [7] = assay: Morris Water Maze, spatial reference memory version, five-day trial paradigm (prevention study); assay type: in vivo, mouse; conditions: 6 months of age
Method: Age and sex-matched cohorts of TgCRND8 mice and non-transgenic littermates (n=35 in each cohort) were either untreated, or were given a compound of the present invention as indicated below at 30 mg/day/mouse beginning at age of about 6 weeks. The mice were followed for outcome measures cognitive function, brain Aβ levels, brain pathology, and survival at 4 months and 6 months of age.
Two cohorts entered the study at 6 weeks of age and outcomes were analyzed at 4- and 6-months of age. The body weight, coat characteristics and in cage behavior was monitored. All experiments were performed according to the Canadian Council on Animal Care guidelines.
as §6
The cognitive function of TgCRND8 mice was assessed using the spatial reference memory version of the Morris Water Maze using a five-day trial paradigm (FIGS. 1C-1H). […] The improved performance was also not due to nutritional or caloric effects because body weight, activity, and coat condition were not different between treated and untreated cohorts. […] Gender effects were not significant between any treatment group (p=0.85).

TgCRND8 mice [8] = assay: Cerebral amyloid plaque burden (anti-Aβ immunostaining, image analysis); assay type: in vivo, mouse; conditions: for amyloid/plaque burden vs untreated (words) / mean plaque size: prevention
Method: as §5
as §5, with “camera.” for “camera. Vascular burden was analyzed similarly and a dissector was used to measure the diameter of affected vessels.”

Aβ42 = target: T1, Aβ42 (Homo sapiens, UniProt P05067); conditions: cited from earlier work
T1 construct: The importance of residues 1-42 (Aβ42) in Alzheimer's disease was highlighted
T1 sequence (P05067 672-713 limits assumed): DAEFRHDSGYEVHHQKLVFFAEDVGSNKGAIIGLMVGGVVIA

amyloid-beta peptide = conditions: cited from earlier work
TgCRND8 mice [9] = assay: Survival census (Kaplan-Meier); assay type: in vivo, mouse; conditions: vs untreated TgCRND8
Method: Survival Census—The probability of survival was assessed by the Kaplan-Meier technique, computing the probability of survival at every occurrence of death, thus making it suitable for small sample sizes. For the analyses of survival, 35 mice were used for each treatment group. The comparison between treatments was reported using the Tarone-Ware test.

[10] = 28 days treatment from 5 months of age
[11] = 1 month treatment from 5 months of age
[12] = 1 month treatment, 30 mg/mouse/day from 5 months, analyzed at 6 months of age
[13] = 4 month prevention, 30 mg/mouse/day from 6 weeks of age
[14] = 6 month prevention, 30 mg/mouse/day from 6 weeks of age

SMILES: OC1C(O)C(O)C(O)C(O)C1O (stereo not drawn) [Allo-inositol, allo-inositol]
- effects on blood chemistry or organ function (TgCRND8 mice [1]): do not exhibit obvious deleterious effects on blood chemistry or organ function
- ALP (TgCRND8 mice [1]; po): 95 ± 16 U/L
- ALT (TgCRND8 mice [1]; po): 44 ± 4 U/L
- Albumin (TgCRND8 mice [1]; po): 32 ± 2 g/L
- Bilirubin (TgCRND8 mice [1]; po): 2.9 ± 3 µmol/L
- Creatinine (TgCRND8 mice [1]; po): 69 ± 64 µmol/L
- Globulin (TgCRND8 mice [1]; po): 17 ± 3 g/L
- Glucose (TgCRND8 mice [1]; po): 10 ± 3 mmol/L
- Icteria (TgCRND8 mice [1]; po): Normal
- Lipemia (TgCRND8 mice [1]; po): Normal
- Total protein (TgCRND8 mice [1]; po): 48 ± 2 g/L
- Urea (TgCRND8 mice [1]; po): 18.6 ± 13 mmol/L
- effect on plasma Aβ levels in comparison to untreated (words) (TgCRND8 mice [2]; 1 month treatment from 5 months of age, listed as allo-inositol): indistinguishable from untreated TgCRND8 plasma levels
- Plasma Aβ Levels (TgCRND8 mice [2]; allo-inositol study: 1 month treatment (28 days) from 5 months of age): 2458 ± 95 pg/mL
- effect on insoluble Aβ42 or Aβ40 (soluble and insoluble pools) (TgCRND8 mice [3]; [10]): did not significantly alter
- reduction of soluble Aβ42 (TgCRND8 mice [3]; [10]): 20%
- Brain Aβ42 Insoluble (TgCRND8 mice [3]; allo-inositol study: 1 month treatment (28 days) from 5 months of age, mean ± sem): 16336 ± 910 ng/gm wet brain
- cognitive function, treated TgCRND8 mice vs non-Tg littermates (words) (TgCRND8 mice [4]; listed as allo-inositol): still significantly different from that of their non-transgenic littermates
- cognitive function, treated vs untreated TgCRND8 mice (words) (TgCRND8 mice [4]; [10]): performed significantly better than untreated TgCRND8 mice

SMILES: OC1C(O)C(O)C(O)C(O)C1O (stereo not drawn) [Epi-Inositol, epi-inositol]
- vascular amyloid burden vs untreated (words) (TgCRND8 mice [5]): No difference could be detected in the vascular amyloid burden
- effect on performance of non-Tg mice (non-Tg littermates): had no effect on the performance of non-Tg mice; also recorded: not effected
- Plasma Aβ Levels (TgCRND8 mice [2]; 1 month treatment): 2158 ± 157 pg/mL
- effect on plasma Aβ levels in comparison to untreated (words) (TgCRND8 mice [2]; 1 month treatment from 5 months of age, listed as epi-inositol): Neither myo-inositol, epi-inositol nor scyllo-inositol treatment had any effect on plasma Aβ levels
- Plasma Aβ Levels (TgCRND8 mice [2]; 4 month prevention): 1082 ± 164 pg/mL
- Plasma Aβ Levels (TgCRND8 mice [2]; 6 month prevention): 952 ± 56 pg/mL
- effect on plasma Aβ levels in comparison to untreated (words) (TgCRND8 mice [2]; prevention, 4- and 6-months of age): Neither epi-inositol nor scyllo-inositol treatment had any effect on plasma Aβ levels
- astrogliosis/gliosis vs untreated (TgCRND8 mice [6]; 6 months of age): decrease in astrogliosis
- astrogliosis, percent brain area covered (GFAP) (TgCRND8 mice [6]; 6-months of age): 0.388±0.039%
- microglial activation, % brain area (TgCRND8 mice [6]; 6 months): 0.248±0.02%
- cognitive function, treated vs untreated TgCRND8 mice (words) (TgCRND8 mice [7]): performed significantly better than untreated TgCRND8 mice
- Aβ load vs untreated (TgCRND8 mice [3]; [11]): Aβ load was significantly decreased
- Total Aβ (TgCRND8 mice [3]; [12]): 17271 ± 415
- Total Aβ (TgCRND8 mice [3]; [13]): 4802 ± 176
- Total Aβ (TgCRND8 mice [3]; [14]): 18464 ± 229
- brain Aβ levels compared with untreated (TgCRND8 mice [3]; prevention, 6 months of age): rose to levels similar to those observed in untreated TgCRND8 mice
- cognitive function, treated TgCRND8 mice vs non-Tg littermates (words) (TgCRND8 mice [4]; listed as epi-inositol): almost significantly different
- plaque burden vs untreated (TgCRND8 mice [8]; [11]): not a significant decrease in the mean plaque size
- Plaque Area (TgCRND8 mice [8]; [12]): 459706 ± 49966 μm^2
- Plaque Count (TgCRND8 mice [8]; [12]): 1342 ± 114
- Total Plaque Area/Total Brain Area (TgCRND8 mice [8]; [12]): 0.134 ± 0.017%
- Plaque Area (TgCRND8 mice [8]; [13]): 65042 ± 5199 μm^2
- Plaque Count (TgCRND8 mice [8]; [13]): 678 ± 64
- Total Plaque Area/Total Brain Area (TgCRND8 mice [8]; [13]): 0.020 ± 0.001%
- Plaque Area (TgCRND8 mice [8]; [14]): 380456 ± 13498 μm^2
- Plaque Count (TgCRND8 mice [8]; [14]): 979 ± 32
- Total Plaque Area/Total Brain Area (TgCRND8 mice [8]; [14]): 0.096 ± 0.04%
- amyloid/plaque burden vs untreated (words) (TgCRND8 mice [8]; 6 months of age): modest effect on amyloid burden
- mean plaque size (TgCRND8 mice [8]; 4 months of age): 95±4.3 μm^2
- mean plaque size (TgCRND8 mice [8]; 6 months of age): 370±9 μm^2

SMILES: OC1C(O)C(O)C(O)C(O)C1O (stereo not drawn) [chiro-inositol]
- structural transition from random to β-structure in Aβ42 (Aβ42): epi- and scyllo- but not chiro-inositol were able to induce a structural transition

SMILES: O=P(O)(O)O[C@@H]1[C@H](O)[C@H](O)[C@@H](OP(=O)(O)O)[C@H](OP(=O)(O)O)[C@H]1O [inositol-1,4,5-triphosphate]
- ability to inhibit amyloid-beta peptide fibrillogenesis (amyloid-beta peptide): found not to be effective

SMILES: O=P(O)(O)O[C@H]1[C@H](O)[C@@H](O)[C@H](OP(=O)(O)O)[C@@H](O)[C@H]1O [inositol-1,4-bisphosphate]
- ability to inhibit amyloid-beta peptide fibrillogenesis (amyloid-beta peptide): found not to be effective

SMILES: O=P(O)(O)O[C@@H]1[C@@H](O)[C@H](O)[C@@H](O)[C@H](O)[C@@H]1O [inositol-monophosphate]
- ability to inhibit amyloid-beta peptide fibrillogenesis (amyloid-beta peptide): found not to be effective

SMILES: OC[C@@H](O)[C@@H](O)[C@H](O)[C@H](O)CO [mannitol, reference compound]
- effect on performance of non-Tg mice (non-Tg littermates): had no effect on the behaviour of non-Tg mice
- cognitive function, treated TgCRND8 mice vs non-Tg littermates (words) (TgCRND8 mice [7]): significantly different from mannitol treated non-Tg littermates
- cognitive function, treated vs untreated TgCRND8 mice (words) (TgCRND8 mice [7]): had no effect on behavior; also recorded: indistinguishable from untreated TgCRND8 mice
- cognitive function, treated vs untreated TgCRND8 mice (words) (TgCRND8 mice [7]; listed as Mannitol): not significantly different from untreated TgCRND8 mice
- amyloid/plaque burden vs untreated (words) (TgCRND8 mice [8]; 6 months of age): did not alter the plaque load in TgCRND8 mice
- amyloid/plaque burden vs untreated (words) (TgCRND8 mice [8]; 6 months of age, listed as Mannitol): indistinguishable from untreated TgCRND8 mice when plaque count was used as a measure of total plaque burden
- effect on survival of TgCRND8 mice (TgCRND8 mice [9]): had no effect on the survival of TgCRND8 mice; also recorded: not significantly different
